Data set [1] addresses T1, Potassium voltage-gated channel subfamily A member 5 (Homo sapiens, UniProt P22460). Kind of data set: Inhibition of human Kv1.5 expressed in mouse L929 cells assessed as inhibition of current at 0.3 uM. The format is cell-based.
The next data set addresses hERG (KCNH2) (Homo sapiens, UniProt Q12809). Kind of data set: Inhibition of human ERG at 10 uM.
Data set [2] in a line: Volume of distribution at steady state in Sprague-Dawley rat at 10 umol/kg, via carotid artery by LC-MS method. The format is ADME, organism-based. The conditions noted are these: in vivo, read-out: Vdss.
A short description of data set [3]: Clearance in Sprague-Dawley rat at 10 umol/kg, via carotid artery by LC-MS method. The format is ADME, organism-based. The conditions noted are these: in vivo.
Data set [4] in a line: Half life in Sprague-Dawley rat at 10 umol/kg, via carotid artery by LC-MS method. The format is ADME, organism-based. The conditions noted are these: in vivo.
Data set [5] concerns the target T1, Potassium voltage-gated channel subfamily A member 5. The experiment in a line: Inhibition of human Kv1.5 expressed in mouse L929 cells assessed as inhibition of current. The format is cell-based.
Data set [6] in a line: Permeability of the compound by PAMPA. The format is ADME. The conditions noted are these: read-out: permeability. A general note: PAMPA measures passive passage across an artificial lipid membrane.
Data set [7] relates to Oryctolagus cuniculus. The experiment in a line: Anti-atrial fibrillation in rabbit assessed as decrease in blood pressure at 3 mg/kg. The format is functional.
In data set [8] the test system is Plasma. The experiment in a line: Plasma concentration in rabbit at 3 mg/kg. The format is ADME, organism-based, Oryctolagus cuniculus. The following applies: in vivo. More on the design: dose 3 mg/kg.
For data set [9], the system named is Oryctolagus cuniculus. The experiment in a line: Anti-atrial fibrillation in rabbit assessed as increase in heart rate at 1 mg/kg. The format is functional.
Data set [10] relates to Oryctolagus cuniculus. Kind of data set: Anti-atrial fibrillation in rabbit assessed as ventricular effective refractory period prolongation at 10 mg/kg. The format is functional.
The nature of data set [11]: Plasma protein binding in rabbit. The format is ADME, cell-free, Oryctolagus cuniculus. The conditions noted are these: read-out: PPB (converted).
For data set [12], the system named is Oryctolagus cuniculus. The experiment in a line: Anti-atrial fibrillation in rabbit assessed as atrial effective refractory period prolongation at 1 mg/kg. The format is functional, Cardiac atrium.
In data set [13] the test system is Oryctolagus cuniculus. Kind of data set: Anti-atrial fibrillation in rabbit assessed as decrease in blood pressure at 1 mg/kg. The format is functional.
For data set [14], the species on record is Oryctolagus cuniculus. The experiment in a line: Anti-atrial fibrillation in rabbit assessed as atrial effective refractory period prolongation. The format is functional, organism-based. The conditions noted are these: Cardiac atrium.
In data set [15] the test system is Oryctolagus cuniculus. Kind of data set: Anti-atrial fibrillation in rabbit assessed as atrial effective refractory period prolongation at 3 mg/kg. The format is functional, Cardiac atrium.
The subject of data set [16] is Oryctolagus cuniculus. The experiment in a line: Anti-atrial fibrillation in rabbit assessed as increase in heart rate at 3 mg/kg. The format is functional.
In data set [17] the test system is Plasma. The experiment in a line: Plasma concentration in rabbit at 1 mg/kg. Further details: dose 1 mg/kg. The conditions noted are these: in vivo. The format is ADME, organism-based, Oryctolagus cuniculus.
Data set [18] in a line: Permeability across apical to basolateral side in human Caco2 cells. The conditions noted are these: Caco-2, read-out: permeability. The format is ADME, cell-based.
The test system of data set [19] is Oryctolagus cuniculus. The experiment in a line: Anti-atrial fibrillation in rabbit assessed as atrial effective refractory period prolongation at 10 mg/kg. The format is functional, Cardiac atrium.
In data set [20] the test system is Plasma. Kind of data set: Plasma concentration in rabbit at 10 mg/kg. The format is ADME, organism-based, Oryctolagus cuniculus. More on the design: dose 10 mg/kg. The following applies: in vivo.

The source made the active and inactive calls. The rule behind the calls is not given here.

Broadly, the inhibition is the share of the control response that was lost under treatment. What is called clearance is a measure of how efficiently the substance is removed, as volume per time. A high value points to efficient removal. Broadly, the half-life is the time in which the quantity being followed falls by half. What is called IC50 is the concentration that inhibits the measured activity by half. A word on the inhibition in vivo: it is the drop in the measured response relative to a control, in per cent.

T1 sequence (P22460 whole entry): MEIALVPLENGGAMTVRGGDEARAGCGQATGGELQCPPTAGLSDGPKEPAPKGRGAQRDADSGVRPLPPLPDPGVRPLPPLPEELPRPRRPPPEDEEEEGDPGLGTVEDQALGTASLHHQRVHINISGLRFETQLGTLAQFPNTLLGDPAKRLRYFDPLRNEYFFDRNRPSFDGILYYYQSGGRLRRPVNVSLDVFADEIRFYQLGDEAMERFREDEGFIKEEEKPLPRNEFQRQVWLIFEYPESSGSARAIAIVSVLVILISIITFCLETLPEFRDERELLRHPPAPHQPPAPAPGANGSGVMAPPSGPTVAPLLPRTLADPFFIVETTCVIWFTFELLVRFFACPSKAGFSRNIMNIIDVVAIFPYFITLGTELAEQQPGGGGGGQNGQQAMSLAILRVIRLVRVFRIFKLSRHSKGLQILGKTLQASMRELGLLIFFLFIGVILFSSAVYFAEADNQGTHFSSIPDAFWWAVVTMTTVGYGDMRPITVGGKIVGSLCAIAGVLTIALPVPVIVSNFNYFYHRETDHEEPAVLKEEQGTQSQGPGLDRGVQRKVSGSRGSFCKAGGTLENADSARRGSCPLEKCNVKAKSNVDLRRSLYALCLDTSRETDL
Chain of hERG (KCNH2) (Q12809 whole entry): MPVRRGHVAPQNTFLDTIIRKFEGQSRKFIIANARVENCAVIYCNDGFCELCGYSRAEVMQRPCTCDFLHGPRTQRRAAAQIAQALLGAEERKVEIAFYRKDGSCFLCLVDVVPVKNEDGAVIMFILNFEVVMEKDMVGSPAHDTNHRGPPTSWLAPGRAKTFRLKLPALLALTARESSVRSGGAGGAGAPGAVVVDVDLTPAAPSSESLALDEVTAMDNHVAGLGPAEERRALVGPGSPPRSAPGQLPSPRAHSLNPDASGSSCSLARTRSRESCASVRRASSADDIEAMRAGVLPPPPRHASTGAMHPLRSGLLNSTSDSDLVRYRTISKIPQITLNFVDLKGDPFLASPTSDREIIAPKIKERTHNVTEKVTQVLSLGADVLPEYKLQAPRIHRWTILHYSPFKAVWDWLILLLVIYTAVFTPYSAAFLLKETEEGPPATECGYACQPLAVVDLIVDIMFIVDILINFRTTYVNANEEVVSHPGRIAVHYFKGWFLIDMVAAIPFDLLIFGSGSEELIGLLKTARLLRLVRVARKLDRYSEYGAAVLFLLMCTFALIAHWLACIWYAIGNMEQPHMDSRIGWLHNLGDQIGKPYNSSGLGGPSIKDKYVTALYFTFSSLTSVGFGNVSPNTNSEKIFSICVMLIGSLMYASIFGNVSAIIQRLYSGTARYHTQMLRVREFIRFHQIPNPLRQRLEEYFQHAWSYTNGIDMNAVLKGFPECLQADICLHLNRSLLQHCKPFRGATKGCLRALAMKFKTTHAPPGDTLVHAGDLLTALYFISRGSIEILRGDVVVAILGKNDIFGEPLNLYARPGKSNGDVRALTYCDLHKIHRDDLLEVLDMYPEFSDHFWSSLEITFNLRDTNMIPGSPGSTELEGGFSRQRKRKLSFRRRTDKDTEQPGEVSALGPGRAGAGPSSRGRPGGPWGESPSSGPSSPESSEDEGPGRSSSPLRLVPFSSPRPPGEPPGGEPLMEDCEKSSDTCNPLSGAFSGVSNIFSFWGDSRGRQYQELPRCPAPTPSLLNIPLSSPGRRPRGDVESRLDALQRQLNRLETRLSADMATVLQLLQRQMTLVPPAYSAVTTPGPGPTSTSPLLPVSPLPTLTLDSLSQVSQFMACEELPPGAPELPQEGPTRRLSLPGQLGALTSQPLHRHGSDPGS

On to `COc1ccc2onc(NCC(C)(C)c3ccccc3)c2c1`, for which the inhibition in data set [1] stood at 37%.
In turn, `COc1cccc2oc(=O)nc(NCC(C)(C)c3ccccc3)c12` registered an inhibition at 10 µM against hERG (KCNH2) of 66%. In [2], the Vd was 0.7 L/kg. For the same compound, the clearance in data set [3] was 10 mL/min/kg. Also, the half-life in data set [4] is 48 min. The IC50 in [5] turned out to be 197 nM. Moreover, in [6], the Papp came to 69.5 ×10⁻⁶ cm/s.
For the compound `COc1cccc2snc(NCC(C)(C)c3ccccc3)c12`, the inhibition at 10 µM at hERG (KCNH2) was determined as 68%. Further, the Vd in [2] is 3.9 L/kg. Further, the clearance in data set [3] stood at 28 mL/min/kg. Moreover, the half-life in data set [4] was 108 min. Further, the IC50 in data set [5] was determined as 25 nM.
Regarding `CCNC(=O)O[C@H]1CC[C@](CNc2n[nH]c3cccc(OC)c23)(c2ccccc2)CC1`, the inhibition in vivo at 3 mg/kg in the data set on Oryctolagus cuniculus [7] came to 17%. Besides, the inhibition at 10 µM against hERG (KCNH2) is 52%. The concentration with Plasma [8] turned out to be 2400 nM; in the data set on Plasma [17], 700 nM. The Activity in the data set on Oryctolagus cuniculus [9] is 5%; in the data set with Oryctolagus cuniculus [12], 15%; in the data set listed under Oryctolagus cuniculus [14], “Dose-dependent effect”; in the data set with Oryctolagus cuniculus [15], 22%; in the data set with Oryctolagus cuniculus [16], 16%. Moreover, the outcome with Oryctolagus cuniculus [10] was inactive. Moreover, the fraction unbound in [11] was 0.003. Besides, in the data set with Oryctolagus cuniculus [13], the inhibition in vivo at 1 mg/kg was 7%. In addition, the Vd in data set [2] was found to be 1.4 L/kg. This compound displayed a clearance in data set [3] of 21 mL/min/kg. The half-life in data set [4] was 78 min. The IC50 in data set [5] was 138 nM. For the same compound, the Papp in data set [6] stood at 67 ×10⁻⁶ cm/s.
As for `COc1cccc2nc(O)nc(NCC(C)(C)c3ccccc3)c12`, the inhibition at 10 µM against hERG (KCNH2) worked out at 50%. Also, the IC50 in data set [5] was found to be 23 nM. In addition, the Papp in data set [6] was found to be 81.6 ×10⁻⁶ cm/s.
Turning to `COc1cccc2c1c(NCC(C)(C)c1ccccc1)nn2C`, at hERG (KCNH2), at 10 µM the inhibition was 69%. For the same compound, in data set [11], the fraction unbound is below 0.001. For the same compound, the Activity with Oryctolagus cuniculus [12] stood at 6%. In data set [2], the Vd turned out to be 1.7 L/kg. The clearance in data set [3] came out at 12 mL/min/kg. Besides, the half-life in [4] was 126 min. This compound also gave a concentration with Plasma [17] of 300 nM. For the same compound, the IC50 in data set [5] was found to be 198 nM. The Papp A→B in data set [18] is 2.3 ×10⁻⁶ cm/s.
As for `CC(C)(CNc1noc2cccc(Cl)c12)c1ccccc1`, in data set [1], the inhibition is 33%.
On to `COc1cccc2c1c(NCC(C)(C)c1ccccc1)nn2C(C)C`, for which the inhibition in [1] is 42%.
On hERG (KCNH2), `COc1cccc2ccnc(NCC(C)(C)c3ccccc3)c12` had an inhibition at 10 µM of 99%. The Vd in [2] is 14 L/kg. In addition, the clearance in data set [3] is 124 mL/min/kg. Besides, the half-life in data set [4] was 108 min. For the same compound, in [5], the 50% inhibitory concentration (IC50) was found to be 22 nM.
The compound `COc1cccc2nc(Cl)nc(NCC(C)(C)c3ccccc3)c12` showed an inhibition at 10 µM against hERG (KCNH2) of 90%. Also, the IC50 in data set [5] is 73 nM.
As to `COc1cccc2c1C(NCC(C)(C)c1ccccc1)=NC2=O`, testing at 10 µM at hERG (KCNH2) gave an inhibition of 46%. The Vd in [2] was 1.1 L/kg. Further, in data set [3], the clearance was found to be 35 mL/min/kg. In addition, in [4], the half-life is 48 min. Besides, the IC50 in data set [5] was 84 nM. Also, in data set [6], the Papp is 79 ×10⁻⁶ cm/s. The Papp A→B in data set [18] is 27 ×10⁻⁶ cm/s.
On hERG (KCNH2), `CCNC(=O)O[C@H]1CC[C@](CNc2nn(C)c3cccc(OC)c23)(c2ccccc2)CC1` yielded an inhibition at 10 µM of 54%. Further, the Vd in [2] was determined as 0.6 L/kg. The same compound registered a clearance in data set [3] of 8 mL/min/kg. The compound further gave a half-life in data set [4] of 84 min. The 50% inhibitory concentration (IC50) in [5] amounted to 88 nM.
For `CC(C)(CNc1noc2ccccc12)c1ccccc1`, the half-inhibitory concentration (IC50) in data set [5] was determined as 784 nM. The Papp A→B in data set [18] stood at 11.6 ×10⁻⁶ cm/s.
Take `CCc1cccc2onc(NCC(C)(C)c3ccccc3)c12`: the half-inhibitory concentration (IC50) in data set [5] was determined as 219 nM.
Turning to `COc1cccc2[nH]nc(NCC(C)(C)c3ccccc3)c12`, the inhibition in data set [1] is 37%. For the same compound, the Papp A→B in data set [18] is 9.4 ×10⁻⁶ cm/s.
With `CC(C)(CNc1noc2cccc(O)c12)c1ccccc1`, the 50% inhibitory concentration (IC50) in data set [5] amounted to 262 nM.
`COc1cccc2ncnc(NCC(C)(C)c3ccccc3)c12` yielded an inhibition at 10 µM at hERG (KCNH2) of 90%. For the same compound, in data set [5], the half-maximal inhibitory concentration (IC50) was 118 nM.
Consider `COc1cccc2onc(NCC(C)(C)c3ccccc3)c12`, for which the Activity in the data set on Oryctolagus cuniculus [10] and in the data set with Oryctolagus cuniculus [19] was below 5% in each case. Besides, the fraction unbound in [11] was below 0.001. Moreover, the Vd in data set [2] was found to be 3.7 L/kg. Also, the clearance in data set [3] is 22 mL/min/kg. Besides, the half-life in [4] was 144 min. Besides, the IC50 in data set [5] turned out to be 43 nM. The compound also returned a concentration in the data set with Plasma [20] of 8.2 µM.
As for `COc1ccc2c(NCC(C)(C)c3ccccc3)noc2c1`, in [1], the inhibition worked out at 21%. Moreover, the Papp A→B in data set [18] was determined as 3.6 ×10⁻⁶ cm/s.
As to `COc1cccc2onc(N(C)CC(C)(C)c3ccccc3)c12`, the IC50 in data set [5] came to 187 nM.

For the origin of these results see ChEMBL document CHEMBL3297706, “Design, synthesis and evaluation of phenethylaminoheterocycles as K(v)1.5 inhibitors” (Bioorg Med Chem Lett, 2014).
